Source: patent publication US9018258B2, “Substituted 1-benzylcycloalkylcarboxylic acids and the use thereof” (Bayer Intellectual Property GmbH, priority 2010, dated 2015)

What was measured:
[1] = target: T1, GAL4-PPARα (Homo sapiens, UniProt Q07869); test: Cellular PPAR transactivation assay, GAL4-PPARα chimera in CHO-K1 cells; assay type: cell-based; settings: for Emax: CHO-K1, maximum effect relative to reference compound (Example 73 of EP 1 452 521-A1 = 100%), read-out: PPARα efficacy; for EC50: CHO-K1 cells, luciferase reporter, 6 h stimulation
T1 construct: expressed in transfected cells
T1 sequence (Q07869 167-468): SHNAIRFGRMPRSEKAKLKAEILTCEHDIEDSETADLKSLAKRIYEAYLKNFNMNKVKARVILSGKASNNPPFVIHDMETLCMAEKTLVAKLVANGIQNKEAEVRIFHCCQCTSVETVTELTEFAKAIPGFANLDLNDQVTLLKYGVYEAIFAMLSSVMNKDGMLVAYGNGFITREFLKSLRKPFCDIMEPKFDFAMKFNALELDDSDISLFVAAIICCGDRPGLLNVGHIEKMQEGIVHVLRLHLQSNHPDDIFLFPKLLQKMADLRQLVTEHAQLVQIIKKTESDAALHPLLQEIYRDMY
Text: (§1) A cellular assay is used to test for potentially activating properties of the compounds according to the invention with respect to the three human isoforms of the peroxisome proliferator-activated receptors (PPARα, PPARγ and PPARδ).
(§2) Since mammalian cells contain different endogenous nuclear receptors which may complicate an unambiguous interpretation of the results, an established chimera system is used in which the respective ligand binding domain of the human PPAR isoforms is fused to the DNA binding domain of the yeast transcription factor GAL4. The resulting GAL4-PPARα, γ and δ chimeras are co-transfected and stably expressed in CHO cells having a reporter construct.
(§3) The GAL4-PPAR expression constructs contain the ligand binding domain of PPARα (amino acids 167-468), PPARγ (amino acids 203-506) and PPARδ (amino acids 138-442) which are PCR-amplified and cloned into the vector pcDNA3.1. The respective expression vectors already contain the GAL4 DNA binding domain (amino acids 1-147) of the vector pFC2-dbd (Stratagene). The reporter construct, which contains five copies of the GAL4 binding site upstream of a thymidine kinase promoter, expresses firefly luciferase (Photinus pyralis) following activation and binding of GAL4-PPARα, γ or δ.
(§4) The day before the test, CHO-K1 cells (chinese hamster ovary; ATCC CCL-61) each stably expressing one of the above-described GAL4-PPAR chimeras and the luciferase reporter gene construct are sown in medium [Optimem (GIBCO) with 2% activated carbon-purified foetal calf serum (Hyclone), 1.35 mM sodium pyruvate (GIBCO) and 0.2% sodium bicarbonate (GIBCO)] in a density of 1×10^3 cells in 96-well microtitre plates (Greiner) and kept in a cell incubator (96% atmospheric humidity, 5% v/v CO2, 37° C.). On the test day, the substances to be tested are taken up in the medium mentioned above, but without addition of calf serum, and added in various concentrations to the cells. After a stimulation period of 6 h, the luciferase activity is measured using a video camera. The relative light units measured give, as a function of the substance concentration, a sigmoidal stimulation curve. The EC50 values are calculated using the computer programme GraphPad PRISM (Version 3.02). The maximum effect of a test substance in the respective PPAR assay is determined as efficacy in percent in comparison to an appropriate reference compound whose maximum effect is defined as 100%.
(§5) The reference compound selected here was the compound 2-(3-{[(2-chloro-4-propoxybenzoyl)-amino]methyl}-4-ethoxybenzyl)tetrahydrofuran-2-carboxylic acid [Example 73 of EP 1 452 521-A1] which is described in the prior art as a potent pan-PPAR agonist.

[2] = target: T2, GAL4-PPARγ (Homo sapiens, UniProt P37231); test: Cellular PPAR transactivation assay, GAL4-PPARγ chimera in CHO-K1 cells; assay type: cell-based; settings: for Emax: CHO-K1, maximum effect relative to reference compound (Example 73 of EP 1 452 521-A1 = 100%), read-out: PPARγ efficacy; for EC50: CHO-K1 cells, luciferase reporter, 6 h stimulation
T2 construct: PPARγ (amino acids 203-506); expressed in transfected cells
T2 sequence (P37231 203-505 limits assumed): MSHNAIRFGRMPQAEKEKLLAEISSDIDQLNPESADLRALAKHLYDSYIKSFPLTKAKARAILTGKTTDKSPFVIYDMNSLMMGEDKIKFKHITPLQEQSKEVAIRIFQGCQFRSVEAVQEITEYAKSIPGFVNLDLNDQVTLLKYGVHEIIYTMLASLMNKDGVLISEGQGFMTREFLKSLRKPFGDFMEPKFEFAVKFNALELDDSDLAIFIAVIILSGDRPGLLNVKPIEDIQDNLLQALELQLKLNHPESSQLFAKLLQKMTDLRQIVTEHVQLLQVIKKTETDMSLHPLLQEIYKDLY
Text: as §1, §2, §3, §4, §5

[3] = target: T3, GAL4-PPARδ (Homo sapiens, UniProt Q03181); test: Cellular PPAR transactivation assay, GAL4-PPARδ chimera in CHO-K1 cells; assay type: cell-based; settings: for Emax: CHO-K1, maximum effect relative to reference compound (Example 73 of EP 1 452 521-A1 = 100%), read-out: PPARδ efficacy; for EC50: CHO-K1 cells, luciferase reporter, 6 h stimulation
T3 construct: PPARδ (amino acids 138-442); expressed in transfected cells
T3 sequence (Q03181 138-441 limits assumed): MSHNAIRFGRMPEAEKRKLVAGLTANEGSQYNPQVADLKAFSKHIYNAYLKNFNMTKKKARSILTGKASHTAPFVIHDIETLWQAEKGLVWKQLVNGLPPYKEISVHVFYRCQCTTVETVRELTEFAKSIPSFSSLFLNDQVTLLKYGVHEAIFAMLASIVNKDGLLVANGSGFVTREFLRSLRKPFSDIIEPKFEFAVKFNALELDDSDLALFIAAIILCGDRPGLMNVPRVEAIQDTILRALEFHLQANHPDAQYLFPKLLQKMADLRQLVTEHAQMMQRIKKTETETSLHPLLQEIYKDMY
Text: as §1, §2, §3, §4, §5

[4] = target: T4, sGC (Rattus norvegicus, UniProt P20595); test: Action at a recombinant guanylate cyclase reporter cell line (CHO reporter cell); assay type: cell-based; settings: CHO reporter cell in vitro
T4 construct: expressed in transfected cells; host or cells: CHO reporter cell
T4 sequence (P19686 whole entry partner): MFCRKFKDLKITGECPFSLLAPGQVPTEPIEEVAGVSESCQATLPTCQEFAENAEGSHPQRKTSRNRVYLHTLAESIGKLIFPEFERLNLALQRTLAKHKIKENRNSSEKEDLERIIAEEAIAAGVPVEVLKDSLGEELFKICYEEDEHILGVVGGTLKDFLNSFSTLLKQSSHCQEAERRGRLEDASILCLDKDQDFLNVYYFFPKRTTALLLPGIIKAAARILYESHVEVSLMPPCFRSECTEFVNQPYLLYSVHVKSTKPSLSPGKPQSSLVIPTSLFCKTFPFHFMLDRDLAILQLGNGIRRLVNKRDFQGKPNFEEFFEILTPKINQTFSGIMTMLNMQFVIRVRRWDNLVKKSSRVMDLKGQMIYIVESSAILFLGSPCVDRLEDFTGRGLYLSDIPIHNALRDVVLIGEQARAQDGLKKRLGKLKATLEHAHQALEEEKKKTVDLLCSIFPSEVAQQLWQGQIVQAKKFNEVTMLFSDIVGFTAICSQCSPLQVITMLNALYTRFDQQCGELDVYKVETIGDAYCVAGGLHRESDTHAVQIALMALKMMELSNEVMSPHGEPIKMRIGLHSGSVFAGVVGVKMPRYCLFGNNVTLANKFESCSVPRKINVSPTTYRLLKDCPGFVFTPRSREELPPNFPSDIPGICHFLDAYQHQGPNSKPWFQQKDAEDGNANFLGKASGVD
T4 sequence (P20595 whole entry): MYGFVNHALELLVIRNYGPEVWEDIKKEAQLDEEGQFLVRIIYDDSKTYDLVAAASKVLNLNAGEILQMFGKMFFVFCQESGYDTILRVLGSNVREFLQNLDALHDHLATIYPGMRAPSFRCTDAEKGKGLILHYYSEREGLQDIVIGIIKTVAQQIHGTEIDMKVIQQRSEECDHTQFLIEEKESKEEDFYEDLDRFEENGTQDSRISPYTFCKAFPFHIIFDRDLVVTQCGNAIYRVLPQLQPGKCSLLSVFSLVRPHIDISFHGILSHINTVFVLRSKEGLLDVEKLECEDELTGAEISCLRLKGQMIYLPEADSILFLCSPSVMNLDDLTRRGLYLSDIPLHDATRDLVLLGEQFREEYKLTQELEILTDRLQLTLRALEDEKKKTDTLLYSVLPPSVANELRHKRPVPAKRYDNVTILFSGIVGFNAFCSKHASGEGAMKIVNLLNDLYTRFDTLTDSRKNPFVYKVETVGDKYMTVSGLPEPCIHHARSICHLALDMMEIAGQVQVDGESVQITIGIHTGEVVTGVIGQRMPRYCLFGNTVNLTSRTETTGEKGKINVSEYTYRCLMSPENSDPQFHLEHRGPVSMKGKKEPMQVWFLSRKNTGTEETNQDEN
Method: The cellular action of the compounds according to the invention is determined at a recombinant guanylate cyclase reporter cell line, as described in F. Wunder et al., Anal. Biochem. 339, 104-112 (2005).

[5] = target: T5, soluble guanylate cyclase (sGC) (Rattus norvegicus, UniProt P20595); test: Stimulation of sGC enzyme activity (PPi detection, luciferase); assay type: biochemical; settings: sGC enzyme in vitro
T5 construct: made in house; host or cells: Sf9 insect cells (baculovirus)
T5 sequence (P19686 whole entry partner): as the sequence (P19686 whole entry partner) above
T5 sequence (P20595 whole entry): as the sequence (P20595 whole entry) above
Method: Soluble guanylate cyclase (sGC) converts on stimulation GTP into cGMP and pyrophosphate (PPi). PPi is detected with the aid of the assay described below. The signal produced in the assay increases as the reaction progresses and serves as a measure of the sGC enzyme activity under the given stimulation.
To carry out the assay, 29 μl of enzyme solution [0-10 nM soluble guanylate cyclase (prepared according to Honicka et al., J. Mol. Med. 77, 14-23 (1999)) in 50 mM TEA, 2 mM MgCl2, 0.1% BSA (fraction V), 0.005% Brij®, pH 7.5] are initially introduced into a microplate, and 1 μl of the substance to be tested (as a serially diluted solution in DMSO) is added. The mixture is incubated at room temperature for 10 min. Then 20 μl of detection mix [1.2 nM Firefly Luciferase (Photinus pyralis luciferase, Promega), 29 μM dehydroluciferin (prepared according to Bitler & McElroy, Arch. Biochem. Biophys. 72, 358 (1957)), 122 μM luciferin (Promega), 153 μM ATP (Sigma) and 0.4 mM DTT (Sigma) in 50 mM TEA, 2 mM MgCl2, 0.1% BSA (fraction V), 0.005% Brij®, pH 7.5] are added. The enzyme reaction is started by adding 20 μl of substrate solution [1.25 mM guanosine 5′-triphosphate (Sigma) in 50 mM TEA, 2 mM MgCl2, 0.1% BSA (fraction V), 0.005% Brij®, pH 7.5] and measured continuously in a luminometer. The extent of the stimulation by the substance to be tested can be determined relative to the signal of the unstimulated reaction.
The activation of haem-free guanylate cyclase is examined by addition of 25 μM of 1H-1,2,4-oxadiazolo[4,3-a]quinoxalin-1-one (ODQ) to the enzyme solution and subsequent incubation for 30 minutes and compared to the stimulation of the native enzyme.

Emax [1] [%] | EC50 [1] [nM] | Effect in the cellular PPAR transactivation test (in words) ([1]; statement covers the PPARα, PPARγ and PPARδ test) | Emax [2] [%] | EC50 [2] [nM] | Emax [3] [%] | EC50 [3] [nM] | MEC (minimum effective concentration), sGC-activating activity in the CHO reporter cell [4] [nM] | MEC (minimum effective concentration), activating action at the sGC enzyme [5] [nM] | EC50 ([5]; read-out: EC50 (concentration at 50% of maximum efficacy), activating action at the sGC enzyme) [nM] | Structure (SMILES)
0 | > 1000 | virtually ineffective | 0 | > 1000 | 10 | > 1000 |  |  |  | COc1ccc(CC2(C(=O)O)CC2)cc1CNC(=O)c1ccc(Cl)cc1Cl [Example 11 of EP 1 452 521-A1, 1-(3-{[(2,4-dichlorobenzoyl)amino]methyl}-4-methoxybenzyl)cyclopropanecarboxylic acid, reference compound]
100 | 5.3 |  | 100 | 8.9 | 100 | 8.4 |  |  |  | CCCOc1ccc(C(=O)NCc2cc(CC3(C(=O)O)CCCO3)ccc2OCC)c(Cl)c1 (stereo not shown) [Example 73 of EP 1 452 521-A1, 2-(3-{[(2-chloro-4-propoxybenzoyl)amino]-methyl}-4-ethoxybenzyl)tetrahydrofuran-2-carboxylic acid, reference compound]
0 | > 10000 |  | 10 | 120 | 0 | > 10000 | 0.3 |  |  | C[C@H]([C@H](C(=O)Nc1cc(CC2(C(=O)O)CC2)ccc1F)c1ccc(C2CC2)cc1)C(F)(F)F [Example 40, 1-(3-{[(2S,3R)-2-(4-cyclopropylphenyl)-4,4,4-trifluoro-3-methylbutanoyl]amino}-4-fluorobenzyl)cyclopropanecarboxylic acid]
0 | > 10000 |  | 20 | 460 | 0 | > 10000 | 3 |  |  | C[C@H]([C@H](C(=O)Nc1cc(CC2(C(=O)O)CC2(F)F)ccc1Cl)c1ccc(Cl)cc1)C(F)(F)F (single isomer, unassigned; (+)) [Example 71]
0 | > 10000 |  | 10 | 4000 | 0 | > 10000 | 3 |  |  | Cc1ccc(CC2(C(=O)O)CC2)cc1NC(=O)[C@H](c1ccc(Cl)cc1)[C@@H](C)C(F)(F)F [Example 33, 1-(3-{[(2S,3R)-2-(4-chlorophenyl)-4,4,4-trifluoro-3-methylbutanoyl]amino}-4-methylbenzyl)-cyclopropanecarboxylic acid]
0 | > 10000 |  | 0 | > 10000 | 0 | > 10000 | 0.3 |  |  | C[C@H]([C@H](C(=O)Nc1cc(CC2(C(=O)O)CC2)ccc1Cl)c1ccc(C(C)(C)C(F)(F)F)cc1)C(F)(F)F [Example 44, 1-[4-chloro-3-({(2S,3R)-4,4,4-trifluoro-3-methyl-2-[4-(1,1,1-trifluoro-2-methylpropan-2-yl)phenyl]-butanoyl}amino)benzyl]cyclopropanecarboxylic acid]
 |  |  |  |  |  |  | 1 | 2.2 | 30 | O=C(Nc1cc(CC2(C(=O)O)CC2)ccc1F)[C@H](c1ccc(Cl)cc1)C1CCCC1 (single isomer, unassigned) [Example 62]
0 | > 10000 |  | 0 | > 10000 | 0 | > 10000 | 0.3 |  |  | C[C@H]([C@H](C(=O)Nc1cc(CC2(C(=O)O)CC2)ccc1F)c1ccc(C(C)(F)F)cc1)C(F)(F)F [Example 38, 1-[3-({(2S,3R)-2-[4-(1,1-difluoroethyl)phenyl]-4,4,4-trifluoro-3-methylbutanoyl}amino)-4-fluorobenzyl]cyclopropanecarboxylic acid]
0 | > 10000 |  | 10 | 2000 | 0 | > 10000 | 3 |  |  | COc1cc([C@@H](C(=O)Nc2cc(CC3(C(=O)O)CC3)ccc2F)[C@@H](C)C(F)(F)F)ccc1Cl [Example 42, 1-(3-{[(2S,3R)-2-(4-chloro-3-methoxyphenyl)-4,4,4-trifluoro-3-methylbutanoyl]amino}-4-fluorobenzyl)cyclopropanecarboxylic acid]
